# Laboratory results: patent US9845323B2, “2-(1,3,4-oxadiazol-2-yl)-7-oxo-1,6-diazabicyclo[3.2.1 ]octane derivatives and their use as antibacterial agents” (WOCKHARDT LIMITED, priority 2014, dated 2017)
# Read-outs that look alike come from different tables or passages of the source.
# Columns and labels:
# K. pneumoniae B 77 = assay: Agar dilution MIC (CLSI), compound alone; assay type: cell-based; details: Klebsiella pneumoniae, B77; K. pneumoniae B 77; Table 3; read-out: MIC
# Description: (§1) The biological activity of representative compounds according to the invention against various bacterial strains was investigated. In a typical study, overnight grown bacterial cultures were diluted appropriately and inoculated on the agar media containing doubling dilutions of the test compounds. Observations for growth or no growth was performed after 16-20 hours of incubation at 35±2° C. in the ambient air. The overall procedure was performed as per Clinical and Laboratory Standards Institute (CLSI) recommendations, (Clinical and Laboratory Standards Institute (CLSI), Performance Standards for Antimicrobial Susceptibility Testing, 20th Informational Supplement, M 07-A9, Volume 32, No. 2, 2012). Molten Mueller Hinton Agar (BD, USA) containing serial dilutions of each antibacterial agent were poured on to the plates and allowed to solidify. Appropriate suspensions from the freshly grown cultures were prepared in normal saline so that about 10^4 CFU/spot of the organism was delivered on to the drug containing agar plates using automated multipoint inoculator (Mast, UK). The plates were incubated in Biochemical oxygen demand (BOD) incubator at 37° C. for 18 hours and then examined for growth.
# [1] = tested on: Class C beta-lactamase CMY/DHA (E. coli M50); assay: Beta-lactamase enzyme inhibition (Nitrocefin, crude enzyme); assay type: biochemical; details: Nitrocefin 100 μM
# Description: (§2) Absorbance was measured at 485 nm by UV-spectrophotometer. The IC50 was calculated by plotting absorbance against concentration through Sigmoidal dose response curve using Graph Pad software.
# [2] = target: Class A beta-lactamase SHV 18 (K. pneumoniae ATCC 700603) (Klebsiella pneumoniae, UniProt P0AD64); assay: as above; assay type: biochemical
# Class A beta-lactamase SHV 18 (K. pneumoniae ATCC 700603), sequence (P0AD64 22-286 limits assumed): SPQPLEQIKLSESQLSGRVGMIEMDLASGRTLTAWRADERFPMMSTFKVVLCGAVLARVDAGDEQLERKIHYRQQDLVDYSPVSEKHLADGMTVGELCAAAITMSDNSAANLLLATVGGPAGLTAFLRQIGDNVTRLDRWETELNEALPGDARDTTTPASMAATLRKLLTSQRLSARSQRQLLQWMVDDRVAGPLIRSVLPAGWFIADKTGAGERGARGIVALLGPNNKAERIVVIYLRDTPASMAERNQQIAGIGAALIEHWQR
# Description: as §2
# E. coli M 50 = assay: Agar dilution MIC of Ceftazidime, alone or with fixed 4 μg/ml compound; assay type: cell-based
# Description: (§3) Agar dilution MIC was carried out in Muller Hinton Agar (Difco, USA) according to the recommendations of CLSI (M07-A9). In short, the plates were poured with a range of doubling increasing concentration of Ceftazidime and fixed 4 μg/ml compound according to invention containing MHA. The freshly overnight grown cultures were diluted in physiological saline to deliver per spot 10^4 CFU. The plates were inoculated with a multipoint inoculator (Mast, UK) and incubated at 35° C. for 18 hours. […] Table-5 provides the result of combination MIC results.
# E. coli NCTC 13353 = assay: as above; assay type: cell-based
# Description: as §3
# [3] = tested on: K. pneumoniae ATCC 700606; assay: as above; assay type: cell-based
# Description: as §3
# Citrobactor spp 58 MP = assay: as above; assay type: cell-based
# Description: as §3
# K. pneumoniae H521 = assay: as above; assay type: cell-based
# Description: as §3
# [4] = tested on: E. coli NCTC 13353 (CTX-M15, OXA-1); assay: Agar dilution MIC (CLSI), compound alone; assay type: cell-based
# Description: as §1
# [5] = tested on: K. pneumoniae H521 (KPC, SHV, TEM); assay: Agar dilution MIC (CLSI), compound alone; assay type: cell-based
# Description: as §1
# [6] = tested on: K. Pneomoniae S48 (NDM, SHV, TEM); assay: Agar dilution MIC (CLSI), compound alone; assay type: cell-based, K. pneumoniae
# Description: as §1
# [7] = target: T1, Class D beta-lactamase OXA 23 (A baumannii NCTC 13301) (Acinetobacter baumannii, UniProt Q9L4P2); assay: Beta-lactamase enzyme inhibition (Nitrocefin, crude enzyme); assay type: biochemical; details: A baumannii NCTC 13301 (OXA 23), Nitrocefin 100 μM
# T1 construct: preincubated mixture of crude enzyme and the compounds; endogenous in cells; host or cells: A. baumannii NCTC 13301 (crude enzyme preparation)
# T1 sequence (Q9L4P2 18-273): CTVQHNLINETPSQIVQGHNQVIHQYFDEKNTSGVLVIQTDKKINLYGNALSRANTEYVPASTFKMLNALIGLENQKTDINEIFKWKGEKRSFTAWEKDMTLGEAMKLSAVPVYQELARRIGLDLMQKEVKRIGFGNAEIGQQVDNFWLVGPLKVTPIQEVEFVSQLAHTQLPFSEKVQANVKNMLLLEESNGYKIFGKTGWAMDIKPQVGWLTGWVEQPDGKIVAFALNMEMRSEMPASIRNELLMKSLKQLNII
# Description: as §2
# [8] = read-out: Beta-lactamase enzyme inhibition IC50, K. pneumoniae ATCC 700603 (SHV 18), Nitrocefin 100 μM
# [9] = Escherichia coli, NCTC13353, E. coli NCTC 13353 (CTX-M15, OXA-1), compound alone, Table 2, read-out: MIC
# [10] = Klebsiella pneumoniae, K. pneumoniae H521 (KPC, SHV, TEM), compound alone, Table 2, read-out: MIC
# [11] = Klebsiella pneumoniae, K. Pneomoniae S48 (NDM, SHV, TEM), compound alone, Table 2, read-out: MIC
# [12] = Ceftazidime + compound fixed at 4 mcg/ml
SMILES,IC50 [1] [nM],"IC50 [2, 8] [nM]","MIC [4, 9] [µg/mL]","MIC [5, 10] [µg/mL]","MIC [6, 11] [µg/mL]",IC50 [7] [nM],other results
"NC(=O)[C@@H]1CC[C@@H]2CN1C(=O)N2OS(=O)(=O)O [Avibactam, avibactam, reference compound]",146,98,–,–,–,–,MIC (K. pneumoniae B 77): 32 µg/mL
"CC(C)(O/N=C(\C(=O)N[C@@H]1C(=O)N2C(C(=O)[O-])=C(C[n+]3ccccc3)CS[C@H]12)c1csc(N)n1)C(=O)O [Ceftazidime, ceftazidime, reference compound]",–,–,–,–,–,–,"MIC of Ceftazidime alone (E. coli M 50; Ceftazidime alone, Table 5): > 32 µg/mL; MIC of Ceftazidime alone (E. coli NCTC 13353; Ceftazidime alone, Table 5): 32 µg/mL; MIC of Ceftazidime alone ([3]; Ceftazidime alone, Table 5): 32 µg/mL; MIC of Ceftazidime alone (Citrobactor spp 58 MP; Ceftazidime alone, Table 5): 16 µg/mL; MIC of Ceftazidime alone (K. pneumoniae H521; Ceftazidime alone, Table 5): > 32 µg/mL"
"O=C(O)[C@H]1/C(=C/CO)O[C@@H]2CC(=O)N21 [Clavulanic acid, clavulanic acid, reference compound]",> 10000,–,–,–,–,–,–
"O=C1N2C[C@@H](CC[C@H]2c2nnc(CC3CNC3)o2)N1OS(=O)(=O)O [Example 1, (2S,5R)-Sulfuric acid mono-[2-(5-azetidin-3-ylmethyl-1,3,4-oxadiazol-2-yl)-7-oxo-1,6-diaza-bicyclo[3.2.1]oct-6-yl]ester]",402,27,> 32,> 32,> 32,3950,–
"O=C1N2C[C@@H](CC[C@H]2c2nnc(C[C@@H]3CCCN3)o2)N1OS(=O)(=O)O [Example 2, (2S,5R)-sulfuric acid mono-[2-(5-(S)-pyrrolidin-2-ylmethyl-[1,3,4]-oxadiazol-2-yl)-7-oxo-1,6-diaza-bicyclo[3.2.1]oct-6-yl] ester]",–,27,> 32,> 32,32,12900,–
"O=C1N2C[C@@H](CC[C@H]2c2nnc(CC3CCNCC3)o2)N1OS(=O)(=O)O [Example 3, (2S,5R)-sulfuric acid mono-[2-(5-piperidin-4-ylmethyl-[1,3,4]-oxadiazol-2-yl)-7-oxo-1,6-diaza-bicyclo[3.2.1]oct-6-yl] ester]",20,39,–,–,–,5720,"MIC ([4]; Escherichia coli, NCTC13353): > 32 µg/mL; MIC ([5]; Klebsiella pneumoniae): > 32 µg/mL; MIC ([6]; Klebsiella pneumoniae): > 32 µg/mL"
"O=C1N2C[C@@H](CC[C@H]2c2nnc(CC3CNCCN3)o2)N1OS(=O)(=O)O (stereo partly drawn) [Example 4, (2S,5R)-sulfuric acid mono[2-(5-(RS)-piperazin-2-ylmethyl-[1,3,4]-oxadiazol-2-yl)-7-oxo-1,6-diaza-bicyclo[3.2.1]oct-6-yl] ester]",–,27,–,–,–,410,"MIC ([4]; Escherichia coli, NCTC13353, 18 h, E. coli NCTC 13353 (CTX-M15, OXA-1), compound alone, Table 2, read-out: MIC): > 32 µg/mL; MIC ([5]; Klebsiella pneumoniae, 18 h, K. pneumoniae H521 (KPC, SHV, TEM), compound alone, Table 2, read-out: MIC): > 32 µg/mL; MIC ([6]; Klebsiella pneumoniae, 18 h, K. Pneomoniae S48 (NDM, SHV, TEM), compound alone, Table 2, read-out: MIC): > 32 µg/mL"
"O=C1N2C[C@@H](CC[C@H]2c2nnc(CCc3ccccc3)o2)N1OS(=O)(=O)O [Example 6, (2S,5R)-sulfuric acid mono-[2-(5-phenyl-ethyl-[1,3,4]-oxadiazol-2-yl)-7-oxo-1,6-diaza-bicyclo[3.2.1]oct-6-yl] ester]",4,–,–,–,–,220,"MIC ([4]; E. coli NCTC 13353 (CTX-M15, OXA-1), compound alone, Table 2): >32 µg/mL; MIC ([5]; K. pneumoniae H521 (KPC, SHV, TEM), compound alone, Table 2): >32 µg/mL; MIC ([6]; K. Pneomoniae S48 (NDM, SHV, TEM), compound alone, Table 2): >32 µg/mL; IC50 ([2]; K. pneumoniae ATCC 700603 (SHV 18), Nitrocefin 100 μM, read-out: Beta-lactamase enzyme inhibition IC50): 32 nM; MIC of Ceftazidime in combination with the compound (E. coli M 50; [12]): 8 µg/mL; MIC of Ceftazidime in combination with the compound (E. coli NCTC 13353; [12]): 0.5 µg/mL; MIC of Ceftazidime in combination with the compound [3, 12]: 8 µg/mL; MIC of Ceftazidime in combination with the compound (Citrobactor spp 58 MP; [12]): 4 µg/mL; MIC of Ceftazidime in combination with the compound (K. pneumoniae H521; [12]): > 32 µg/mL"
"O=C1N2C[C@@H](CC[C@H]2c2nnc(CCCc3ccccc3)o2)N1OS(=O)(=O)O [Example 7, (2S,5R)-sulfuric acid mono-{2-[5-(3-phenyl-propyl)-[1,3,4]-oxadiazol-2-yl]-7-oxo-1,6-diaza-bicyclo[3.2.1]oct-6-yl} ester]",4,40,> 32,> 32,32,115,–
"O=C1N2C[C@@H](CC[C@H]2c2nnc(C(c3ccccc3)c3ccccc3)o2)N1OS(=O)(=O)O [Example 8, (2S,5R)-sulfuric acid mono-[2-(5-benzhydryl-[1,3,4]-oxadiazol-2-yl)-7-oxo-1,6-diaza-bicyclo[3.2.1]oct-6-yl] ester]",17,37,> 32,> 32,> 32,8,–
"O=C1N2C[C@@H](CC[C@H]2c2nnc(CC(c3ccccc3)c3ccccc3)o2)N1OS(=O)(=O)O [Example 9, (2S,5R)-sulfuric acid mono-{2-[5-(2,2-diphenyl-ethyl)-[1,3,4]-oxadiazol-2-yl]-7-oxo-1,6-diaza-bicyclo[3.2.1]oct-6-yl} ester]",–,4,> 32,> 32,> 32,240,–
"O=C1N2C[C@@H](CC[C@H]2c2nnc(Cc3ccc(Cl)cc3)o2)N1OS(=O)(=O)O [Example 10, (2S,5R)-sulfuric acid mono-{2-[5-(4-chloro-benzyl)-[1,3,4]-oxadiazol-2-yl]-7-oxo-1,6-diaza-bicyclo[3.2.1]oct-6-yl} ester]",10,–,–,–,–,108,"MIC ([4]; Escherichia coli, NCTC13353): > 32 µg/mL; MIC ([5]; Klebsiella pneumoniae): > 32 µg/mL; MIC ([6]; Klebsiella pneumoniae): > 32 µg/mL"
"Nc1ccc(Cc2nnc([C@@H]3CC[C@@H]4CN3C(=O)N4OS(=O)(=O)O)o2)cc1 [Example 11, (2S,5R)-sulfuric acid mono-{2-[5-(4-amino-benzyl)-[1,3,4]-oxadiazol-2-yl]-7-oxo-1,6-diaza-bicyclo[3.2.1]oct-6-yl} ester]",13,–,–,–,–,108,"MIC ([4]; Escherichia coli, NCTC13353): > 32 µg/mL; MIC ([5]; Klebsiella pneumoniae): > 32 µg/mL; MIC ([6]; Klebsiella pneumoniae): 32 µg/mL"
"CN(C)c1ccc(Cc2nnc([C@@H]3CC[C@@H]4CN3C(=O)N4OS(=O)(=O)O)o2)cc1 [Example 12, (2S,5R)-sulfuric acid mono-{2-[5-(4-dimethylamino-benzyl)-[1,3,4]-oxadiazol-2-yl]-7-oxo-1,6-diaza-bicyclo[3.2.1]oct-6-yl} ester]",6,10,> 32,> 32,> 32,97,–
"O=C1N2C[C@@H](CC[C@H]2c2nnc(Cc3ccc(O)cc3)o2)N1OS(=O)(=O)O [Example 13, (2S,5R)-sulfuric acid mono-{2-[5-(4-hydroxy-benzyl)-[1,3,4]-oxadiazol-2-yl]-7-oxo-1,6-diaza-bicyclo[3.2.1]oct-6-yl} ester]",0.1,13,–,–,–,39,"MIC ([4]; Escherichia coli, NCTC13353): > 32 µg/mL; MIC ([5]; Klebsiella pneumoniae): > 32 µg/mL; MIC ([6]; Klebsiella pneumoniae): > 32 µg/mL"
"COc1ccc(Cc2nnc([C@@H]3CC[C@@H]4CN3C(=O)N4OS(=O)(=O)O)o2)cc1 [Example 14, (2S,5R)-sulfuric acid mono-{2-[5-(4-methoxy-benzyl)-[1,3,4]-oxadiazol-2-yl]-7-oxo-1,6-diaza-bicyclo[3.2.1]oct-6-yl} ester]",13,–,> 32,> 32,> 32,80,–
